Experiment [1] deals with Smad1/5/8 signaling pathway. Description: Growth factor receptor activation: western blot quantification of phospho-smad1/5/8. The class given is cell-based. The following applies: Table 4; human osteosarcoma cells MG63; quantification of western blots of phospho-smad1/5/8. On the procedure: After 24 hours of culture, cells were permeabilized (10% SDS, 25 mM NaCl, 10 nM pepstatin and 10 nM leupeptin in distilled water and loading buffer), boiled for 10 minutes and resolved by reducing PAGE (Invitrogen). Proteins were transferred onto nitrocellulose, blocked, and labeled with HRP-conjugated antibodies (Invitrogen). Integrin αv, α5, +3, α4, β1, β3, β5 and […] were blotted by treating the nitrocellulose with monoclonal anti-integrin (extracellular domain) αv, α5, +3, α4, β1, β3, β5 and β6 antibodies (Santa Cruz Biotechnology). Phosphor-Smad1/5/8 was blotted by treating the nitrocellulose with monoclonal anti-p-Smad1/5/8 (Santa Cruz Biotechnology). For all of the experiments the western blot was performed in triplicate, along with an additional blot for actin and coomassie blue staining to ensure constant protein load among samples.

For experiment [2], the system named is human osteosarcoma cells, MG63. Nature of the experiment: Tumor cell recoding via quantification of pRB and p53 (immunofluorescence staining, ImageJ). It is filed as cell-based. The settings on record: MG63, quantification of pRB. On the procedure: The cells were first fixed for 20 min with 4% paraformaldehyde/PBS at 4° C. After fixation, the cells were permeabilized in PBS containing 1% Triton X-100 for 15 min. Protein immunofluorescent visualization was performed by first treating the cells with 1% (v/v) specific monoclonal antibodies for 1 hour at 37° C. Then the samples were incubated with Alexa Fluor® 568 or 647 (F(ab′)2 fragment of IgG(H+L)) during 30 min at room temperature. The cell nuclei were counterstained in 20 ng/mL DAPI for 10 min at room temperature.
For this type of quantification the freeware image analysis ImageJ® software was used. The raw image was first converted to an 8-bit file, and then the unsharp mask feature was used (settings 1:0.2) to remove the image background (rolling ball radius 10). After smoothing, the resulting image, which appears similar to the original photomicrograph but with minimal background, was then converted to a binary image by setting a threshold. Threshold values were determined empirically by selecting a setting, which gave the most accurate binary image for a subset of randomly selected photomicrographs. The cell area was determined by manual delineation on raw fluorescent images. Total contact area and mean contact area per cell were calculated by “analyse particules” in ImageJ®. A minimum of 50 cells per condition were analyzed.
Neoplastic cells (in this example osteosarcoma cells) were cultured on pharmaceutical associations comprising PET as a bioactive carrier and one of GFR-binding compounds of SEQ ID NO: 11 to 14, 24 to 26 and 51 to 63. A rapid (24 hours) decrease of the tumor markers was observed (FIG. 7). The adhesion checkpoint then activates the tumor suppressor proteins p53 and pRB. […]

Another experiment addresses growth factor receptors. Description: cell-based or functional assay.

For the molecule “ASAAPSSAPTALSATSVLYY (Non-cyclic GFR-binding peptide) [SEQ ID NO: 82]”, the “p-Smad1/5/8 (%)” value in experiment [1] was determined as 41%. Further, the “pRB (%)” value in experiment [2] (Table 4) and in experiment [2] (Table 5) was 19% in each case.
“ASAAPSSVPQALEPLTILYY (Non-cyclic GFR-binding peptide) [SEQ ID NO: 77]”: in experiment [1], the “p-Smad1/5/8 (%)” value was found to be 55%. Moreover, the “pRB (%)” value in experiment [2] (Table 4) and in experiment [2] (Table 5) was 15% each time.
As to “ASAAPSSVPQALRSVKVAKV (Non-cyclic GFR-binding peptide) [SEQ ID NO: 88]”, in experiment [1], the “p-Smad1/5/8 (%)” value turned out to be 37%. Besides, the “pRB (%)” value in experiment [2] (Table 4) and in experiment [2] (Table 5) was 18% each time.
On to “ASAAPSSVPQALSSLSILFF (Non-cyclic GFR-binding peptide) [SEQ ID NO: 67]”, for which the “p-Smad1/5/8 (%)” value in experiment [1] is on record as 38%. Besides, the “pRB (%)” value in experiment [2] (Table 4) and in experiment [2] (Table 5) was 15% throughout.
With “ASASPSSVPQDLRSVKVAKV (Non-cyclic GFR-binding peptide) [SEQ ID NO: 90]”, in experiment [1], the “p-Smad1/5/8 (%)” value was 56%. In addition, the “pRB (%)” value in experiment [2] (Table 4) and in experiment [2] (Table 5) was 9% throughout.
For the molecule “ASASPSSVSQDLEPLTILYY (Non-cyclic GFR-binding peptide) [SEQ ID NO: 78]”, the “p-Smad1/5/8 (%)” value in experiment [1] was determined as 52%. The “pRB (%)” value in experiment [2] (Table 4) and in experiment [2] (Table 5) was 18% in each case.
For “ASASPSSVSQDLSSLSILFF (Non-cyclic GFR-binding peptide) [SEQ ID NO: 68]”, in experiment [1], the “p-Smad1/5/8 (%)” value came out at 40%. Moreover, the “pRB (%)” value in experiment [2] (Table 4) and in experiment [2] (Table 5) was 14% in each case.
Turning to “AVPKASSAPTKLEPISILYL (Non-cyclic GFR-binding peptide) [SEQ ID NO: 70]”, in experiment [1], the “p-Smad1/5/8 (%)” value turned out to be 67%. Further, the “pRB (%)” value in experiment [2] (Table 4) and in experiment [2] (Table 5) was 21% throughout.
For “GIPEPSSTPTKMSPINMLYF (Non-cyclic GFR-binding peptide) [SEQ ID NO: 94]”, the “p-Smad1/5/8 (%)” value in experiment [1] is on record as 39%. The “pRB (%)” value in experiment [2] (Table 4) and in experiment [2] (Table 5) was 9% in each case.
As for “GIPEPSSVPQKMEPLPIVYY (Non-cyclic GFR-binding peptide) [SEQ ID NO: 75]”, the “p-Smad1/5/8 (%)” value in experiment [1] worked out at 51%. Moreover, the “pRB (%)” value in experiment [2] (Table 4) and in experiment [2] (Table 5) was 10% in each case.
Turning to “HVPKPSSAPTKLEPISILYL (Non-cyclic GFR-binding peptide) [SEQ ID NO: 100]”, the “p-Smad1/5/8 (%)” value in experiment [1] was 75%. Also, the “pRB (%)” value in experiment [2] (Table 4) and in experiment [2] (Table 5) was 19% throughout.
For “KASKASSVPQKLEPLPIVYY (Non-cyclic GFR-binding peptide) [SEQ ID NO: 85]”, in experiment [1], the “p-Smad1/5/8 (%)” value was determined as 22%. Also, the “pRB (%)” value in experiment [2] (Table 4) and in experiment [2] (Table 5) was 10% in each case.
“KIPKASSTPTELSPINMLYF (Non-cyclic GFR-binding peptide) [SEQ ID NO: 93]”: the “p-Smad1/5/8 (%)” value in experiment [1] worked out at 47%. Moreover, the “pRB (%)” value in experiment [2] (Table 4) and in experiment [2] (Table 5) was 7% each time.
Turning to “KIPKASSVPQELEPLPIVYY (Non-cyclic GFR-binding peptide) [SEQ ID NO: 74]”, the “p-Smad1/5/8 (%)” value in experiment [1] is reported as 44%. Moreover, the “pRB (%)” value in experiment [2] (Table 4) and in experiment [2] (Table 5) was 9% each time.
On to “KIPKASSVPTELSPISVLYK (Non-cyclic GFR-binding peptide) [SEQ ID NO: 87]”, for which the “p-Smad1/5/8 (%)” value in experiment [1] stood at 32%. In addition, the “pRB (%)” value in experiment [2] (Table 4) and in experiment [2] (Table 5) was 21% throughout.
Take “KVGKASSVPQKLEPLPIVYY (Non-cyclic GFR-binding peptide) [SEQ ID NO: 84]”: the “p-Smad1/5/8 (%)” value in experiment [1] came out at 33%. Besides, the “pRB (%)” value in experiment [2] (Table 4) and in experiment [2] (Table 5) was 9% each time.
For “KVGKASSVPTKLEPISILYL (Non-cyclic GFR-binding peptide) [SEQ ID NO: 71]”, the “p-Smad1/5/8 (%)” value in experiment [1] came out at 66%. Also, the “pRB (%)” value in experiment [2] (Table 4) and in experiment [2] (Table 5) was 17% throughout.
In the case of “NDEGLESVPTEEEPLTILYY (Non-cyclic GFR-binding peptide) [SEQ ID NO: 79]”, the “p-Smad1/5/8 (%)” value in experiment [1] was determined as 58%. For the same molecule, the “pRB (%)” value in experiment [2] (Table 4) and in experiment [2] (Table 5) was 17% in each case.
For the molecule “NDEGLESVPTEERSVKVAKV (Non-cyclic GFR-binding peptide) [SEQ ID NO: 91]”, the “p-Smad1/5/8 (%)” value in experiment [1] was found to be 55%. Moreover, the “pRB (%)” value in experiment [2] (Table 4) and in experiment [2] (Table 5) was 12% in each case.
As for “NDEGLESVPTEESAISMLYL (Non-cyclic GFR-binding peptide) [SEQ ID NO: 96]”, in experiment [1], the “p-Smad1/5/8 (%)” value turned out to be 78%. Also, the “pRB (%)” value in experiment [2] (Table 4) and in experiment [2] (Table 5) was 22% throughout.
For “NDEGLESVPTEESSLSILFF (Non-cyclic GFR-binding peptide) [SEQ ID NO: 80]”, the “p-Smad1/5/8 (%)” value in experiment [1] was 27%. Also, the “pRB (%)” value in experiment [2] (Table 4) and in experiment [2] (Table 5) was 9% each time.
Regarding “RNVQSRPTQVQLKPLSMLYV (Non-cyclic GFR-binding peptide) [SEQ ID NO: 73]”, the “p-Smad1/5/8 (%)” value in experiment [1] turned out to be 48%. For the same molecule, the “pRB (%)” value in experiment [2] (Table 4) and in experiment [2] (Table 5) was 16% in each case.
As to “RNVQSRPTQVQLSPISILFI (Non-cyclic GFR-binding peptide) [SEQ ID NO: 98]”, the “p-Smad1/5/8 (%)” value in experiment [1] turned out to be 34%. In addition, the “pRB (%)” value in experiment [2] (Table 4) and in experiment [2] (Table 5) was 17% each time.
Consider “RNVQSRPVPTQLSPISVLYK (Non-cyclic GFR-binding peptide) [SEQ ID NO: 86]”, for which, in experiment [1], the “p-Smad1/5/8 (%)” value is on record as 26%. Also, the “pRB (%)” value in experiment [2] (Table 4) and in experiment [2] (Table 5) was 24% throughout.
Regarding “RVPSTSSAPTKTSATSVLYY (Non-cyclic GFR-binding peptide) [SEQ ID NO: 81]”, the “p-Smad1/5/8 (%)” value in experiment [1] was 34%. The “pRB (%)” value in experiment [2] (Table 4) and in experiment [2] (Table 5) was 17% each time.
For the molecule “SIPKASSTPTELSPINMLYF (Non-cyclic GFR-binding peptide) [SEQ ID NO: 64]”, the “p-Smad1/5/8 (%)” value in experiment [1] worked out at 37%. The “pRB (%)” value in experiment [2] (Table 4) and in experiment [2] (Table 5) was 23% in each case.
Consider “SIPKASSVPQELEPLPIVYY (Non-cyclic GFR-binding peptide) [SEQ ID NO: 76]”, for which, in experiment [1], the “p-Smad1/5/8 (%)” value was found to be 54%. In addition, the “pRB (%)” value in experiment [2] (Table 4) and in experiment [2] (Table 5) was 8% throughout.
Take “SSVKSQPSRVHHKPLSMLYV (Non-cyclic GFR-binding peptide) [SEQ ID NO: 72]”: in experiment [1], the “p-Smad1/5/8 (%)” value stood at 47%. Besides, the “pRB (%)” value in experiment [2] (Table 4) and in experiment [2] (Table 5) was 19% throughout.
“SSVKSQPSRVHHSPISILFI (Non-cyclic GFR-binding peptide) [SEQ ID NO: 97]”: the “p-Smad1/5/8 (%)” value in experiment [1] was found to be 39%. For the same molecule, the “pRB (%)” value in experiment [2] (Table 4) and in experiment [2] (Table 5) was 14% each time.
Consider “TKPTSTPTKLSPINMLYF (Non-cyclic GFR-binding peptide) [SEQ ID NO: 65]”, for which, in experiment [1], the “p-Smad1/5/8 (%)” value is listed as 36%. Moreover, the “pRB (%)” value in experiment [2] (Table 4) and in experiment [2] (Table 5) was 10% in each case.
In the case of “TQVKMRPVQVRKI (Non-cyclic GFR-binding peptide) [SEQ ID NO: 92]”, the “p-Smad1/5/8 (%)” value in experiment [1] worked out at 44%. Also, the “pRB (%)” value in experiment [2] (Table 4) and in experiment [2] (Table 5) was 8% throughout.
For the molecule “TVPKPSSAPTQLRSVKVAKV (Non-cyclic GFR-binding peptide) [SEQ ID NO: 83]”, the “p-Smad1/5/8 (%)” value in experiment [1] is listed as 35%. Moreover, the “pRB (%)” value in experiment [2] (Table 4) and in experiment [2] (Table 5) was 12% each time.
On to “VPTGQSAISMLYL (Non-cyclic GFR-binding peptide) [SEQ ID NO: 95]”, for which the “p-Smad1/5/8 (%)” value in experiment [1] is recorded as 52%. Also, the “pRB (%)” value in experiment [2] (Table 4) and in experiment [2] (Table 5) was 17% throughout.
Regarding “VSQDLRSVKVAKV (Non-cyclic GFR-binding peptide) [SEQ ID NO: 89]”, in experiment [1], the “p-Smad1/5/8 (%)” value is listed as 36%. In addition, the “pRB (%)” value in experiment [2] (Table 4) and in experiment [2] (Table 5) was 17% in each case.
In the case of “VVPKPSSAPTQLEPISILYL (Non-cyclic GFR-binding peptide) [SEQ ID NO: 69]”, the “p-Smad1/5/8 (%)” value in experiment [1] was 39%. Besides, the “pRB (%)” value in experiment [2] (Table 4) and in experiment [2] (Table 5) was 20% each time.
In the experiment with growth factor receptors, YVPKPSSTPTKLSPINMLYF [GFR-binding compound of SEQ ID NO: 66] returned a p-Smad1/5/8 (%) of 38%.
The same measure, in the same setting: then ASAAPSSVPQALSSLSILFF [GFR-binding compound of SEQ ID NO: 67], with 38%.

The values are drawn from patent publication US20220273759A1, “PHARMACEUTICAL ASSOCIATION FOR CONVERTING A NEOPLASTIC CELL INTO A NON-NEOPLASTIC CELL AND USES THEREOF” (HISTIDE AG, priority 2015, published 2022).
